Experimental findings from article PMC7731667 (Journal of medicinal chemistry, 2020) are described below.

Data set [1] in a line: Human liver microsome stability. The data set is classed as in vitro ADME. Conditions: human liver microsomes. For orientation: Liver microsomes are a subcellular fraction often used to study metabolism.
Data set [2] is described as follows: Human plasma stability. Conditions: 120 min. The class given is in vitro ADME.
Data set [3] is described as follows: Mouse plasma stability. The data set is classed as in vitro ADME. Conditions: 120 min.
Data set [4] is described as follows: Mouse liver microsome stability. The data set is classed as in vitro ADME. Conditions: mouse liver microsomes.
For data set [5] the following is noted: pH 7.4.
A short description of data set [6]: In vivo pharmacokinetics in mice. Also noted: species or system mouse. Conditions: for clearance: male, CD-1, mouse, plasma, iv, 10 mg/kg; for time until brain level fell below target therapeutic level: mice, single 10 mg/kg IV dose, target 30 ng/g for 11 and 13B, 120 ng/g for 12.

For the compound “1-(3-(5-cyclopropyl-4-phenyl-4H-1,2,4-triazol-3-yl)propyl)-3-(2-methylcyclohexyl)urea [Compound 3]”, the “t1/2 HLM” value in data set [1] stood at 8 min. For the same compound, in data set [2], the Hplasma stability is recorded as 98 % @ 120 min. The compound further had a Mplasma stability in data set [3] of 84 % @ 120 min. The “t1/2 MLM” value in data set [4] came to 3 min. The compound also came in with a Solubility in data set [5] of 24.

In data set [2], `CC1CCCCC1NC(=O)NCCSc1nnc(C2CC2)n1-c1ccccc1` (centres unmarked) [Compound 1, 1-(2-((5-cyclopropyl-4-phenyl-4H-1,2,4-triazol-3-yl)thio)ethyl)-3-(2-methylcyclohexyl)urea, reference compound] yielded a Hplasma stability of 95 % @ 120 min. The compound further returned a Mplasma stability in data set [3] of 94 % @ 120 min. For the same compound, the half-life (in general, the time in which the quantity being followed falls by half) at 1 μM in data set [4] is 2 min.

In the case of `CC1CCCCC1NC(=O)NCCCc1nnc(C2CC2)n1-c1ccccc1` (centres unmarked) [Compound 2, 1-(3-(5-cyclopropyl-4-phenyl-4H-1,2,4-triazol-3-yl)propyl)-3-(2-methylcyclohexyl)urea], the Hplasma stability in data set [2] is 95 % @ 120 min. Also, the Mplasma stability in data set [3] is recorded as 100 % @ 120 min.

In the case of `CC1CC(O)CCC1NC(=O)NCCCCc1ccccc1` (centres unmarked) [Compound 11, 1-(4-hydroxy-2-methylcyclohexyl)-3-(4-phenylbutyl)urea], in data set [6], the clearance (usually the volume of plasma or blood freed of the substance per unit of time) amounted to 63.9 mL/min/kg and the “time until brain level fell below target therapeutic level” value was 1 h.

As to `O=C(NCCCCc1ccccc1)NC1CCC(O)CC1` (centres unmarked) [Compound 12, 1-(4-hydroxycyclohexyl)-3-(4-phenylbutyl)urea], in data set [6], the clearance is 29.5 mL/min/kg and the “time until brain level fell below target therapeutic level” value turned out to be 1 h.

Take `O=C(CCCCCc1ccccc1)N[C@H]1CC[C@H](O)CC1` [Compound 13B, N-(trans-4-hydroxycyclohexyl)-6-phenylhexanamide]: the “time until brain level fell below target therapeutic level” value in data set [6] is “greater than 2 hour”.

In the case of “N-(4-fluoro-4-methylcyclohexyl)-6-phenylhexanamide [Compound 18]”, in data set [1], the “t1/2 HLM” value is 10.2 min. Moreover, the “t1/2 MLM” value in data set [4] amounted to 2.8 min.
